Reference: patent US9834542B2, “LXR modulators” (BRISTOL-MYERS SQUIBB COMPANY, priority 2013, dated 2017)

Target: T1, LXRβ (Homo sapiens, UniProt P55055)
T1 construct: Co-transfection expression plasmids, comprising full-length LXRα (pCMX-h LXRα[…] or LXRβ (pCMX-hLXRβ)); expressed in transfected cells; host or cells: CV-1 African Green Monkey Kidney Cells
T1 sequence (P55055 1-460): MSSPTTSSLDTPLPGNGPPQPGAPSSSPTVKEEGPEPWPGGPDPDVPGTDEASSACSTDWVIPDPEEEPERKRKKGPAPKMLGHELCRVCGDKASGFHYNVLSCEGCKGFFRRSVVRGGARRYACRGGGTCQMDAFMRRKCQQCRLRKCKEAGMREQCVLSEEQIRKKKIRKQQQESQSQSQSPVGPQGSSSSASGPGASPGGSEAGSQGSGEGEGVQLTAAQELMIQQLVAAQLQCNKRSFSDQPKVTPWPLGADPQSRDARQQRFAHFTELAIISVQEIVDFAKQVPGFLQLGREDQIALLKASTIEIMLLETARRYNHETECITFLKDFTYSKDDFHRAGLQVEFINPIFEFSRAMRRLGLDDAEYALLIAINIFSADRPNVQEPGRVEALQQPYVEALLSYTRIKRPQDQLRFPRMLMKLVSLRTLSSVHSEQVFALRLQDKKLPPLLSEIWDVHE
T1 sequence (P19793 1-462 partner): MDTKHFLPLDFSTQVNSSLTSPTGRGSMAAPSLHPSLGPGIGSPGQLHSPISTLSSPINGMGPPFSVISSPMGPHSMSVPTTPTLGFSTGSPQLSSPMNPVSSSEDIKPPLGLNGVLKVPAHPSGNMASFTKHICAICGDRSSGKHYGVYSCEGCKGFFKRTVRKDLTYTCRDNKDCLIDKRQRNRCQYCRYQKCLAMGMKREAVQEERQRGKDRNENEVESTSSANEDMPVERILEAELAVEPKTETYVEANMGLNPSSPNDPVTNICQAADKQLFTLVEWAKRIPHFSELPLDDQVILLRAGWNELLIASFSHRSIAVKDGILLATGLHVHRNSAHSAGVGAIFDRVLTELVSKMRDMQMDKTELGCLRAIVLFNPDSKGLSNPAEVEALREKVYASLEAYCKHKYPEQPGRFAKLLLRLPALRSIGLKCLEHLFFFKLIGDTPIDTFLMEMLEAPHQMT
Experiment: Co-transfection assay (LXRE luciferase reporter), LXRβ
Type: cell-based
Details: for EC50: CV-1 cells transfected with pCMX-hLXRβ and LXREx1-Tk-Luciferase, 20 hours incubation; for Emax: LXRβ co-transfection, relative to high control 1-(2,4-difluorobenzyl)-2-oxo-6-(4-phenoxyphenyl)-4-(trifluoromethyl)-1,2-dihydropyridine-3-carbonitrile, read-out: % Efficacy
Summary of the method: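 CV-1 / pCMX-hLXRβ + LXREx1-Tk-Luc + β-gal; cpd 20 h, 37 °C, ≤0.5% DMSO; Steady-Glo luminescence. 11-pt ½-log curves, duplicate wells, sigmoidal fit → EC50; % efficacy vs high-control agonist, DMSO low control; mean of ≥2 expts.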

| SMILES | EC50 | Emax |
| --- | --- | --- |
| CS(=O)(=O)c1cccc(-c2ccc(-n3cc(C(F)(F)F)nc3Cl)c(-n3nncc3-c3ccc(Cl)cc3)c2)c1 [Example 2, 5-(4-chlorophenyl)-1-{4-[2-chloro-4-(trifluoromethyl)-1H-imidazol-1-yl]-3′-(methylsulfonyl)biphenyl-3-yl}-1H-1,2,3-triazole] | 680 nM | 80% |
| Cc1cc(-c2cnnn2-c2cc(-c3cccc(S(C)(=O)=O)c3)ccc2-n2cc(C(F)(F)F)nc2C)ccc1F [Example 28, 5-(4-fluoro-3-methylphenyl)-1-{3′-(methylsulfonyl)-4-[2-methyl-4-(trifluoromethyl)-1H-imidazol-1-yl]biphenyl-3-yl}-1H-1,2,3-triazole] | 589 nM | 117% |
| Cc1nc(-c2cc(-c3cccc(S(=O)(=O)C4CC4)c3)ccc2-n2cc(C(F)(F)F)nc2C)c(-c2ccc3c(c2)OC(F)(F)O3)o1 [Example 416] | 30 nM | 76% |
| CCC(F)(F)c1cn(-c2ccc(-c3cccc(S(C)(=O)=O)c3)cc2-n2nncc2-c2ccc(OC(F)(F)F)cc2)c(C)n1 [Example 184, 1-{4-[4-(1,1-difluoropropyl)-2-methyl-1H-imidazol-1-yl]-3′-(methylsulfonyl)biphenyl-3-yl}-5-{4-[(trifluoromethyl)oxy]phenyl}-1H-1,2,3-triazole] | 337 nM | 86% |
| Cc1nc(-c2cc(-c3cc(F)c(CO)c(S(C)(=O)=O)c3)ccc2-n2cc(C(F)(F)F)nc2C)c(-c2cc(Cl)cc(Cl)c2)o1 [Example 456, (3′-(5-(3,5-dichlorophenyl)-2-methyloxazol-4-yl)-3-fluoro-4′-(2-methyl-4-(trifluoromethyl)-1H-imidazol-1-yl)-5-(methylsulfonyl)biphenyl-4-yl)methanol] | 57 nM | 45% |
| CS(=O)(=O)c1cc(-c2cc(F)c(-n3cnc(C(F)(F)F)c3)c(-n3nncc3-c3ccc(Cl)cc3Cl)c2)cc(F)c1CO [Example 190, {3′-[5-(2,4-dichlorophenyl)-1H-1,2,3-triazol-1-yl]-3,5′-difluoro-5-(methylsulfonyl)-4′-[4-(trifluoromethyl)-1H-imidazol-1-yl]biphenyl-4-yl}methanol] | 208 nM | 119% |
| CCC(F)(F)c1cn(-c2ccc(-c3cc(F)c(CO)c(S(C)(=O)=O)c3)cc2-c2nc(C)oc2-c2ccc(OC(F)(F)F)cc2)c(C)n1 [Example 518, (4′-(4-(1,1-difluoropropyl)-2-methyl-1H-imidazol-1-yl)-3-fluoro-3′-(2-methyl-5-(4-(trifluoromethoxy)phenyl)oxazol-4-yl)-5-(methylsulfonyl)-[1,1′-biphenyl]-4-yl)methanol] | 107 nM | 49% |
| Cc1nc(C(F)(F)F)cn1-c1ccc(-c2cccc(S(C)(=O)=O)c2)cc1-c1nc(CC(=O)O)oc1-c1ccc(OC(F)(F)F)cc1 [Example 537, 2-(4-(4-(2-methyl-4-(trifluoromethyl)-1H-imidazol-1-yl)-3′-(methylsulfonyl)-[1,1′-biphenyl]-3-yl)-5-(4-(trifluoromethoxy)phenyl)oxazol-2-yl)acetic acid] | 661 nM | 100% |
| Cc1nc(C(F)(F)F)cn1-c1ccc(-c2cc(Cl)c(CO)c(S(C)(=O)=O)c2)cc1-n1nncc1-c1ccc2c(c1)OC(F)(F)O2 [Example 21, {3-chloro-3′-[5-(2,2-difluoro-1,3-benzodioxol-5-yl)-1H-1,2,3-triazol-1-yl]-5-(methylsulfonyl)-4′-[2-methyl-4-(trifluoromethyl)-1H-imidazol-1-yl]biphenyl-4-yl}methanol] | 502 nM | 65% |
| CNS(=O)(=O)c1cccc(-c2ccc(-n3cc(C(F)(F)F)nc3C)c(-n3nncc3-c3ccc(OC(F)(F)F)cc3)c2)c1 [Example 213, N-methyl-4′-(2-methyl-4-(trifluoromethyl)-1H-imidazol-1-yl)-3′-(5-(4-(trifluoromethoxy)phenyl)-1H-1,2,3-triazol-1-yl)-[1,1′-biphenyl]-3-sulfonamide] | 94 nM | 89% |
| CCCCOc1ccc(-c2cnnn2-c2cc(-c3cccc(S(C)(=O)=O)c3)ccc2-n2cc(C(F)(F)F)nc2C)cc1 [Example 30, 5-[4-(butyloxy)phenyl]-1-{3′-(methylsulfonyl)-4-[2-methyl-4-(trifluoromethyl)-1H-imidazol-1-yl]biphenyl-3-yl}-1H-1,2,3-triazole] | 605 nM | 85% |
| Cc1nc(C(F)F)c(Cl)n1-c1ccc(-c2cccc(S(C)(=O)=O)c2)cc1-n1nncc1-c1ccc(OC(F)(F)F)cc1 [Example 172, 1-{4-[5-chloro-4-(difluoromethyl)-2-methyl-1H-imidazol-1-yl]-3′-(methylsulfonyl)biphenyl-3-yl}-5-{4-[(trifluoromethyl)oxy]phenyl}-1H-1,2,3-triazole] | 1030 nM | 159% |
| COCc1c(F)cc(-c2cc(F)c(-n3cc(C(F)(F)F)nc3C)c(-n3nncc3-c3ccc(Cl)cc3)c2)cc1S(C)(=O)=O [Example 207, 5-(4-chlorophenyl)-1-{3′,5-difluoro-4′-[(methyloxy)methyl]-5′-(methylsulfonyl)-4-[2-methyl-4-(trifluoromethyl)-1H-imidazol-1-yl]biphenyl-3-yl}-1H-1,2,3-triazole] | 176 nM | 76% |
| COCS(=O)(=O)c1cccc(-c2ccc(-n3cc(C(F)(F)F)nc3C)c(-c3nc(C)oc3-c3ccc(OC(F)(F)F)cc3)c2)c1 [Example 539, 4-(3′-((methoxymethyl)sulfonyl)-4-(2-methyl-4-(trifluoromethyl)-1H-imidazol-1-yl)-[1,1′-biphenyl]-3-yl)-2-methyl-5-(4-(trifluoromethoxy)phenyl)oxazole] | 206 nM | 81% |
| Cc1nc(C(F)(F)F)cn1-c1ccc(-c2cc(F)c(CO)c(S(C)(=O)=O)c2)cc1-n1nncc1Cc1cccc(Cl)c1 [Example 120, (3′-{5-[(3-chlorophenyl)methyl]-1H-1,2,3-triazol-1-yl}-3-fluoro-5-(methylsulfonyl)-4′-[2-methyl-4-(trifluoromethyl)-1H-imidazol-1-yl]biphenyl-4-yl)methanol] | 795 nM | 91% |
| Cc1nc(-c2cc(-c3cccc(S(C)(=O)=O)c3)ccc2-n2cc(C(F)(F)F)nc2C)c(-c2ccc(F)cc2F)o1 [Example 453, 5-(2,4-difluorophenyl)-2-methyl-4-(4-(2-methyl-4-(trifluoromethyl)-1H-imidazol-1-yl)-3′-(methylsulfonyl)biphenyl-3-yl)oxazole] | 71 nM | 43% |
| Cc1nc(C(F)(F)F)cn1-c1ccc(-c2cccc(S(C)(=O)=O)c2)cc1-n1nncc1-c1ccc(N2CCCC2)cc1 [Example 51, 1-{3′-(methylsulfonyl)-4-[2-methyl-4-(trifluoromethyl)-1H-imidazol-1-yl]biphenyl-3-yl}-5-(4-pyrrolidin-1-ylphenyl)-1H-1,2,3-triazole] | 158 nM | 107% |
| Cc1nc(C(F)(F)F)cn1-c1ccc(-c2cccc(C(C)(C)C(N)=O)c2)cc1-n1nncc1-c1ccc(OC(F)(F)F)cc1 [Example 27, 2-methyl-2-{4′-[2-methyl-4-(trifluoromethyl)-1H-imidazol-1-yl]-3′-(5-{4-[(trifluoromethyl)oxy]phenyl}-1H-1,2,3-triazol-1-yl)biphenyl-3-yl}propanamide] | 561 nM | 83% |
| Cc1nc(-c2ccccc2OC(F)(F)F)c(-c2cc(-c3cc(F)c(CO)c(S(C)(=O)=O)c3)ccc2-n2cc(C(F)(F)F)nc2C)o1 [Example 632, (3-fluoro-3′-(2-methyl-4-(2-(trifluoromethoxy)phenyl)oxazol-5-yl)-4′-(2-methyl-4-(trifluoromethyl)-1H-imidazol-1-yl)-5-(methylsulfonyl)-[1,1′-biphenyl]-4-yl)methanol] | 34 nM | 41% |
| Cc1nc(-c2cc(-c3cccc(S(C)(=O)=O)c3)ccc2-n2cc(C(F)(F)F)nc2C)c(-c2ccc(C)c(F)c2)o1 [Example 504, 5-(3-fluoro-4-methylphenyl)-2-methyl-4-(4-(2-methyl-4-(trifluoromethyl)-1H-imidazol-1-yl)-3′-(methylsulfonyl)biphenyl-3-yl)oxazole] | 91 nM | 77% |
